Results: patent publication US20260184714A1, “SMALL MOLECULE MODULATORS OF PAR2 AND USES THEREOF” (PARMEDICS, INC., priority 2022, published 2026)
Like-named read-outs stand apart in the source and are kept apart here.

Legend:
[1] = molecular target: T1, protease-activated receptor-2 (PAR2) (Homo sapiens, UniProt P55085); test: xCELLigence real time cellular analysis (RTCA) of PAR2 antagonism; assay type: cell-based; settings: 16HBE14o- cells; 5 min pre-incubation with 300 nM-10 μM compound, then 300 nM 2AT or 30 nM trypsin; high concentrations
T1 construct: a human bronchial epithelial cell line that naturally expressed PAR2; endogenous in cells; host or cells: 16HBE14o- human bronchial epithelial cells
T1 sequence (P55085 26-397): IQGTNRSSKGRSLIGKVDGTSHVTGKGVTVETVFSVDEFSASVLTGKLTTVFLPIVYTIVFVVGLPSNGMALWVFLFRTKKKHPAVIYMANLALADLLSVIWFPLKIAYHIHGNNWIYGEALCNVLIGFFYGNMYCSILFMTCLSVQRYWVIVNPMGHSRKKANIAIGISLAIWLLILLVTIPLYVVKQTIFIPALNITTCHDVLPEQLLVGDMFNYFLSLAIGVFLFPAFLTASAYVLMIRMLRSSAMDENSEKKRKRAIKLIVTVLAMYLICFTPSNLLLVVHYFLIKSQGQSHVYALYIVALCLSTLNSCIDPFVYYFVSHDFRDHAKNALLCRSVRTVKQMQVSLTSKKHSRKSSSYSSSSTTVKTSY
Method: (§1) Compound I-1 (labelled as “C I-1” in FIGS. 1A-1D) was evaluated for its ability to antagonize protease-activated receptor-2 (PAR2) in several cellular assays using a human bronchial epithelial cell line that naturally expressed PAR2 (16HBE14o− cells; see FIG. 1A-1D).
In the first assay to detect an in vitro physiological response, the xCELLigence real time cellular analysis (RTCA) was used.
Following overnight growth, varying concentrations of Compound I-1 was added to individual wells (in quadruplicate) in final concentrations of 300 nM, 1 μM, 3 μM and 10 μM. […] The upward deflection and recovery of the Cell Index shown in response to control 300 nM 2AT (FIG. 1A) or 30 nM (FIG. 1B) represents a typical EC50 response.

[2] = molecular target: T1, protease-activated receptor-2 (PAR2); test: Digital imaging microscopy of intracellular Ca2+ changes (Gq/Ca2+ signaling); assay type: cell-based; settings: 16HBE14o- cells; [Ca2+]i by digital imaging microscopy
Method: as §1
(§2) It is known that two primary signaling outcomes of PAR2 activation are the initiation of Gq/Ca^2+ and β-arrestin/MAPK signaling. To determine whether the observed in vitro physiologic antagonism represented partial antagonism or intracellular signaling dependent antagonism, digital imaging microscopy was used to assay intracellular Ca^2+ changes ([Ca^2+ ]i; […]) as a measure of Gq/Ca^2+ signaling and an In Cell Western approach for measuring phosphorylation of extracellular regulated kinase ½ (ICW of pERK ½; see FIG. 1D) as an assay for β-arrestin/MAPK signaling. […] It is concluded that Compound I-1 is a β-arrestin/MAPK biased PAR2 antagonist.

[3] = molecular target: T1, protease-activated receptor-2 (PAR2); test: In Cell Western of pERK 1/2 (β-arrestin/MAPK signaling); assay type: cell-based; settings: 16HBE14o- cells; ICW of pERK 1/2
Method: as §1, §2

[4] = In vivo pharmacokinetics (plasma concentration by LC-MS/MS, non-compartmental analysis); settings: mouse; for concentration at 24 h: read-out: Clast (24 h); for Cmax: read-out: Co/Cmax
Method: Compound I-1 was evaluated for its plasma stability and oral bioavailability. Mice were fasted overnight before dosing, with water provided ad libitum throughout the study. Three animals are dosed via gavage needle for oral administration at 10 mg/kg (10 mL/kg), via tail vein injection for intravenous administration at […], and via injection in the lower right quadrant of the abdomen for intraperitoneal injections at 10 mg/kg (10 mL/kg). Blood samples (25-30 μL per sample) were taken via saphenous or submandibular vein at 5, 15, 30 min, and 1, 2, 4, 6, 8, 24 h post dose and drug concentration determined by LC-MS/MS. Plasma concentrations were then graphed vs time and pharmacokinetic parameters (terminal half life, t1/2; initial plasma concentration, Co; area under the curve (AUC); volume of distribution at steady-state. Vss; total plasma clearance CLp; mean residence time, MRT; maximum plasma concentration Cmax; time to reach Cmax, tmax; and bioavailability, F) were determined using non-compartmental analysis.

[5] = system: stress-induced migraine-like pain; test: Stress-induced migraine model, facial withdrawal response after SNP; assay type: in vivo, mouse; settings: mice, restraint stress for 3 days, 14-day recovery, then SNP
Method: Migraine headaches are characterized by sensitivity of pain-sensing neurons in the dura mater to innocuous stimuli, e.g., the nitric oxide donor, sodium nitroprusside (SNP). Compound I-1 was evaluated in vivo using a mouse migraine model to assess whether it can be used to treat stress-induced migraine-like pain. FIG. 2 summarizes the results for this in vivo study.
Mice were subjected to restraint stress for 3 days (□ and ⋄ data points in FIG. 2) or left unrestrained (∘ and Δ data points in FIG. 2), resulting in a significant facial withdrawal response up to 3 days post-stress.

[6] = system: airway hyperresponsiveness induced by Alternaria alternata; test: Alternaria alternata-induced asthma model, total airway resistance to methacholine (FLEXIVENT); assay type: in vivo, mouse; settings: mice, Alternaria alternata intranasally three times over 8 days, with Compound I-1
Method: Alternaria alternata is a fungal allergen that activates PAR2 in the airways to promote inflammation and bronchoconstriction. Compound I-1 was evaluated in vivo to assess whether it can be used to treat airway hyperresponsiveness induced by Alternaria alternata. FIG. 3 summarizes the results for this in vivo study.
Alternaria alternata or saline (A data points in FIG. 3) were administered intranasally in a mouse asthma model three times over an 8 day period, in the presence (Q data points in FIG. 3) or absence (o data points in FIG. 3) of Compound I-1. Total airway resistance in response to increasing amounts of methacholine was monitored using the FLEXIVENT® (Scireq, Quebec, Canada) system.

Structure (SMILES): CC(C)C[C@@H]1C(=O)N2C(CN(CC3CCNCC3)C(=O)[C@@H]2CC(C)C)N1C(=O)c1ccco1 (stereo partly drawn) [Compound I-1, 4-(((2R,5S)-1-(furan-2-carbonyl)-2,5-diisobutyl-3,6-dioxohexahydroimidazolo [1,2-a]pyrazin-7(1H)-yl)methyl)piperidin-1-ium chloride]
- Cell Index response to PAR2 activation (antagonism) [1]: reduced the response
- Antagonism at the Gq/Ca2+ signaling pathway [2]: not observed
- Antagonism of the β-arrestin/MAPK-signaling pathway [3]: significant antagonism
- F ([4]; IP, 10 mg/kG): 89.8%
- F ([4]; Oral, 10 mg/kG): 84.7%
- AUC ([4]; plasma, IP, 10 mg/kG): 2670 ng·h/mL
- Tmax ([4]; plasma, IP, 10 mg/kG): 0.25 h
- half-life ([4]; plasma, IP, 10 mg/kG): 7.97 h
- concentration at 24 h ([4]; plasma, IP, 10 mg/kG): 12.9 ng/mL
- Cmax ([4]; plasma, IP, 10 mg/kG): 689 ng/mL
- AUC ([4]; plasma, IV, 2 mg/kG): 595 ng·h/mL
- half-life ([4]; plasma, IV, 2 mg/kG): 7.9 h
- clearance ([4]; plasma, IV, 2 mg/kG, read-out: CLp): 56.6 mL/min/kg
- concentration at 24 h ([4]; plasma, IV, 2 mg/kG): 1.15 ng/mL
- Cmax ([4]; plasma, IV, 2 mg/kG): 1330 ng/mL
- Vd ([4]; plasma, IV, 2 mg/kG, read-out: Vss): 8.29 L/kg
- AUC ([4]; plasma, Oral, 10 mg/kG): 2520 ng·h/mL
- Tmax ([4]; plasma, Oral, 10 mg/kG): 0.5 h
- half-life ([4]; plasma, Oral, 10 mg/kG): 7.45 h
- concentration at 24 h ([4]; plasma, Oral, 10 mg/kG): 11.4 ng/mL
- Cmax ([4]; plasma, Oral, 10 mg/kG): 632 ng/mL
- Facial withdrawal response after SNP [5]: eliminated
- Total airway resistance in response to increasing methacholine [6]: has promise as a therapeutic for reducing allergen-induced asthma attacks
